The test system of series [1] is Nrf2 dependent genes. Description: Quantitative PCR of gene expression, NEMs. It counts as cell-based, human. As to conditions: 4 h, mRNA. As for the experimental part: Medium was refreshed every 2 days.
(§1) Total RNA was prepared using RNeasy mini kit (Qiagen) according to the manufacturer's protocol. RNA was quantified using a Nanodrop ND-1000 spectrophotometer. First- strand cDNA synthesis was derived from 1 ug of total RNA using the iscript cDNA synthesis kit (Biorad) according to the manufacturer's protocol. Primers were tested in normal KC cDNA. Stability of reference genes was analyzed with the GeNorm method (Vandesompele et al., 2002). Expression analysis was performed with the BioRad software (iQ5) and was based on the delta delta Ct method with the reference genes that were most stably expressed according to the GeNorm analysis.
(§2) Expression levels of the following genes were measured: HMOX-1 (Hemeoxygenase-1), GCLM (Glutamate-cysteine ligase modifier subunit), TXNRD1 (Thioredoxin reductase 1), OSGIN-1 (oxidative stress induced growth inhibitor 1), B2M (Beta-2 microglobulin), GUSB (Glucuronidase beta) and TBP (TATA binding protein). Quantitative real-time PCR was determined by using the following primer sets: • 5'-[…]-'3 (HMOX-1), • 5'-[…]-'3 GCLM), • 5'-[…]-'3 (TXNRD1), • 5'- TGCTGCAGAGGAAGCTCAC-'3 (OSGIN1), • 5'-[…]-'3 (B2M), • 5'-[…]-'3 (GUSB), • 5'-[…]-'3 (TBP).
(§3) Real-Time PCRs were performed in 10 µl reaction volumes using the MylQ system and SYBR Green PCR Master- mix (Biorad) according to the manufacturer's protocol. […]

Series [2] relates to Nrf2 dependent genes. Description: Quantitative PCR of gene expression, monolayer primary keratinocytes. The format is cell-based, human. As to conditions: 4 h, mRNA. On the procedure:
as §1, §2, §3

Series [3] relates to NEMs. Description: MTT cell viability assay, epidermal model. Conditions: topical exposure. For orientation: Formazan colour is commonly taken as a measure of viable cells.
Protocol: The LEMs and the NEMs were constructed by seeding 200.000 cells on insert filters (12 wells plate, polyester membrane, Costar) in Dermalife K medium including lifefactors (Lifeline Cell Technology, Walkersville, MD) until full density was reached. […] Thereafter they were cultured in CNT medium (basal medium plus supplement kit, CellnTec, Bern, Switzerland). […] Medium was refreshed every 2 days. LEMs and NEMs were air-exposed for 12 days at 37 °C and 7.3% CO2 prior to analysis.
Twelve days air-exposed LEMs or NEMs were covered with a 11 mm filter paper disc (Finn Chamber, Phoenix, USA). Chemicals with different doses were applied onto the filters and incubated for 24 h and thereafter washed away with PBS. LEMs or NEMs were then incubated with thiazolyl blue tetrazolium bromide (MTT), (Sigma). MTT stock of 5 mg/ml PBS (filter sterilized) was diluted to a final concentration of 1 mg/ml in colourless DMEM medium. MTT medium was added to the cell cultures and incubated for 3 h at 37°C. Viable cells were then allowed to reduce the tetrazolium dye to its insoluble formazan, which has a purple colour. Therefore, after 3 hours, the MTT was removed and washed away with PBS. After drying, the formazan was dissolved in 2ml of isopropanol overnight at room temperature. Absorbance was measured at 570 nm using a plate reader (TECAN infinite F200) in order to calculate the cell viability.
Series [4] deals with Nrf2 dependent genes. Description: Quantitative PCR of gene expression, N/TERT monolayer cultures. Conditions: 4 h, mRNA. The format is cell-based, human. As for the experimental part:
as §1, §2
Real-Time PCRs were performed in 10 µl reaction volumes using the MylQ system and SYBR Green PCR Master- mix (Biorad) according to the manufacturer's protocol.
The PCR cycles were: 3 minutes at 95 °C to activate the polymerase, 40 cycles of 20 seconds at 95 °C and 40 seconds at 60 °C, followed by the generation of a melt curve.
All qPCR values were averaged relative to the three different reference genes: B2M, GUSB, TBP. For each data point, PCRs were performed in duplicate and values represent means ± standard deviation.

In series [5] the test system is Monolayer keratinocytes. Description: WST-1 cell viability assay, monolayers. It counts as cell-based, human. As to conditions: WST-1, 24 h of treatment. As for the experimental part: Cell viability of monolayers was measured using WST-1 assay (Roche diagnostics, Mannheim, Germany). Briefly, cells were seeded in 96-well flat-bottom plates (Greiner Bio-One, Frickenhausen, Germany) in 100 µl of culture medium 24-48 h prior to chemical treatment. After 24 h of treatment with an irritant or sensitizer, 10 µl of WST-1 reagent was added and plates were further incubated up to 3 h at 37°C. […] Monolayer keratinocytes were exposed to DNCB (10 µM) and SDS (80µM) at 80% cell viability concentrations.

The conditions of series [6]: skin sensitizing potency; cited from earlier work.
The subject of series [7] is Nrf2. Description: Nuclear fractionation and Western blot, N/TERT monolayer cultures. The format is cell-based, human. From the text: (§4) Nuclear fractions of monolayer cultures and reconstructed epidermis were isolate using a Nuclear extract kit (Active motif, Carlsbad, CA) according to the manufacturer's protocol. Nuclear fractions were subjected to Western blot analysis.
(§5) Monolayer cells were lysed in M-Per buffer (Thermo Scientific, Rockford, USA), reconstructed epidermis was cut in pieces and lysed in T-Per lysis buffer (Thermo Scientific, Rockford, USA) both supplemented with protease inhibitor cocktail EDTA-free and HALTTM phosphatase inhibitors (Thermo Scientific). Cell lysates were measured using the BCATM protein assay kit (Thermo Scientific). Equal amounts of proteins were separated by SDS-page. Proteins were transferred onto PVDF- transfer membranes (Thermo Scientific). […] After four times washing with PBST, proteins were detected by enhanced chemi-luminescence (Super signal West femto (Pierce Thermo Scientific, Rockford, USA) and visualized by exposure to X-ray film (Fujifilm Europe GmbH, Düsseldorf, Germany).
(§6) Next we investigated whether Nrf2 expression could be stabilized by inhibiting the proteasome that is responsible for a constitutive degradation of Nrf2. […] Although the Nrf2 translocation was clearly visible, we used a second approach enabling quantification of the amount of translocated Nrf2. […]
A general note: Immunoblotting shows a protein as a band on a membrane.

The test system of series [8] is Nrf2. Description: Nuclear fractionation and Western blot, monolayer primary keratinocytes. It counts as cell-based, human.
Text: as §4, §5, §6

Series [9] concerns Nrf2. Description: Nrf2 nuclear translocation by immunohistochemical analysis, NEMs. As to conditions: NEMs 12 days air-exposed, 4 h treatment. The format is cell-based, human.

Molecules are shown by their SMILES. Residues, ends and D or L forms follow the SMILES beside them. *: point of attachment. Cbz = O=C(OCc1ccccc1)*

For the molecule `O=[N+]([O-])c1ccc(Cl)c([N+](=O)[O-])c1` [DNCB, 2,4-dinitrochlorobenzene], in series [1], the “Expression of GLCM” value is “approx. 3,2 fold” and the “Expression of OSGIN-1” value is “approx. 2 fold”. Further, in series [2], the “Expression of GCLM” value was “approx. 1,2 fold” and the “Expression of OSGIN-1” value is listed as “approx. 1,2 fold”. Also, in [3], the “concentrations of 80 - 85% CV” value came to 500 µM. In series [4], the “Expression of GCLM” value was “approx. 1,2 fold”, the “Expression of OSGIN-1” value is “approx. 1,2 fold” and the “Expression of TXNRD-1” value is “approx. 1,2 fold”. Also, the “80% cell viability concentrations” value in series [5] turned out to be 10 µM.
Turning to `CC=Cc1ccc(O)c(OC)c1` [IsoEu, Isoeugenol], the “concentrations of 80 - 85% CV” value in [3] is 15000 µM. The Potency category result in [6] is reported as “moderate”.
Take `CC(C)C[C@@H](C=O)NC(=O)[C@H](CC(C)C)NC(=O)[C@H](CC(C)C)NC(=O)OCc1ccccc1` [MG132] (Cbz-Leu-Leu-Leu-aldehyde): the “Nrf2 protein levels in nuclear lysates” value in [7] and in series [8] was “elevated levels of Nrf2” in each case.
In the case of `Nc1ccc(N)cc1` [PPD, p-Phenylenediamine], in [3], the “concentrations of 80 - 85% CV” value is 35000 µM.
Regarding `CCCCCCCCCCCCOS(=O)(=O)[O-].[Na+]` [SDS, Sodium Dodecyl Sulfate], in [9], the “Nrf2 in the nuclei” value is “Nrf2 was only translocated to the nucleus after DNCB treatment”. Further, in series [5], the “80% cell viability concentrations” value came to 80 µM.
